# Laboratory results from patent US12491175B2, “Composition containing carotenoids and use thereof for protecting neurons against neurodegeneration” (priority 2019, dated 2025).
# Experiments:
# HT22 neuronal cells [1] = assay: Toxicity of pigment alone on HT22 neuronal cells (MTS cell viability); type: cell-based, mouse; conditions: 50 μM pigment, no glutamate; FIG. 1 white rectangles
# HT22 neuronal cells [2] = conditions: for effect on cell death of HT22 neuronal cells induced by glutamate: glutamate at 10 mM, FIG. 1
# Experimental: The HT22 neuronal cells (mouse hippocampus neuronal line) were treated for two hours with 50 μM of pigment, followed or not by the addition of 10 mM glutamate for 24 hours at 37° C. Cell viability (in %) was measured by an MTS test (by means of a CellTiter 96®Aqueous non-Radioactive Cell Proliferation Assay kit from Promega).
# The HT22 cells were treated for 2 hours either with diadinoxanthin (FIG. 2) or violaxanthin (FIG. 3) or diatoxanthin (comparative test shown in FIG. 4) at different concentrations. For each of the concentrations, cell death was then induced by glutamate (10 mM) for 24 hours at 37° C. Cell viability (in %) was measured by an MTS test. The values shown are the mean±standard deviation (n=3).
# The EC50 (half maximal effective concentration) is the concentration at which a molecule induces a response halfway between the baseline and the maximum effect after a certain exposure time thereof. This determines its efficacy.
SMILES,toxicity of pigment alone (cell viability) (HT22 neuronal cells [1]),effect on cell death of HT22 neuronal cells induced by glutamate (HT22 neuronal cells [2]),"EC50 (HT22 neuronal cells [2]; read-out: EC50 (half maximal effective concentration), dose-response, 2 hours pre-treatment, then glutamate 10 mM for 24 hours at 37° C., FIG. 2, FIG. 3) [µM]"
CC1=C(C#C/C(C)=C/C=C/C(C)=C/C=C/C=C(C)/C=C/C=C(C)/C=C/[C@@]23O[C@]2(C)C[C@@H](O)CC3(C)C)C(C)(C)C[C@H](O)C1 [diadinoxanthin],non-toxic,protective effect,22
CC(/C=C/C=C(C)/C=C/[C@@]12O[C@]1(C)C[C@@H](O)CC2(C)C)=C\C=C\C=C(C)\C=C\C=C(C)\C=C\[C@@]12O[C@]1(C)C[C@@H](O)CC2(C)C [violaxanthin],non-toxic,protective effect,–
